From ChEMBL document CHEMBL1201862, “PubChem BioAssay data set” (2004)
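Grown in 96-well plates, cells were treated for 48 hours with each compound at five concentrations. Insufficient inhibition: endpoint recorded as highest concentration tested. GI50: concentration for 50% inhibition of growth.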 Activity calls are given as the source filed them. No stated cut-off is given here; in the data, active = GI50 up to about 1.1 µM and inactive = higher.

Experiments:
Experiment in all cases: growth of human tumour cells (NCI), 48 h
[1] = system: 786-0
[2] = system: HCC 2998
[3] = system: KM12
[4] = system: MOLT-4
[5] = system: NCI-H23
[6] = system: NCI-H460
[7] = system: NCI-H522
[8] = system: OVCAR-3
[9] = system: OVCAR-4
[10] = system: RPMI-8226
[11] = system: SK-MEL-5
[12] = system: SN12C
[13] = system: SNB-75
[14] = system: SW-620
[15] = system: TK-10
[16] = system: UO-31
[17] = system: Hs-578T
[18] = system: MDA-MB-435
[19] = system: MCF7
[20] = system: T47D

| SMILES | GI50 [1] | GI50 [2] | GI50 [3] | GI50 [4] | GI50 [5] | GI50 [6] | GI50 [7] | GI50 [8] | GI50 [9] | GI50 [10] | GI50 [11] | GI50 [12] | GI50 [13] | GI50 [14] | GI50 [15] | GI50 [16] | GI50 [17] | GI50 [18] | GI50 [19] | GI50 [20] |
| --- | --- | --- | --- | --- | --- | --- | --- | --- | --- | --- | --- | --- | --- | --- | --- | --- | --- | --- | --- | --- |
| COc1ccc2c(c1)[n+]([O-])c(-c1ccc(OC)c(OC)c1)c(N)[n+]2[O-] | > 100 µM (inactive) | > 100 µM (inactive) | 98.2 µM (inactive) | 78.5 µM (inactive) | 21.2 µM (inactive) | 49.4 µM (inactive) | 15.9 µM (inactive) | > 100 µM (inactive) | > 100 µM (inactive) | > 100 µM (inactive) | 32.7 µM (inactive) | 68.9 µM (inactive) | > 100 µM (inactive) | > 100 µM (inactive) | > 100 µM (inactive) | > 100 µM (inactive) |  |  |  |  |
| COc1ccccc1NC(=O)CC(=O)NNCC(=O)Nc1nc(-c2ccccc2)cs1 | > 100 µM (inactive) | 4.1 µM (inactive) | > 100 µM (inactive) | > 100 µM (inactive) | > 100 µM (inactive) | > 100 µM (inactive) | > 100 µM (inactive) | > 100 µM (inactive) | > 100 µM (inactive) | > 100 µM (inactive) | > 100 µM (inactive) | > 100 µM (inactive) | > 100 µM (inactive) | > 100 µM (inactive) | > 100 µM (inactive) |  |  |  |  |  |
| Cc1cc(-c2nc3c(F)cccc3s2)ccc1N | 92.5 µM (inactive) |  | 38.9 µM (inactive) | 10.7 µM (inactive) | 32.8 µM (inactive) |  | 11.3 µM (inactive) | > 100 µM (inactive) |  | 26.9 µM (inactive) | 62.2 µM (inactive) | 28.2 µM (inactive) | 52.1 µM (inactive) | > 100 µM (inactive) |  | 12.4 µM (inactive) | 98.6 µM (inactive) | 57.3 µM (inactive) |  |  |
| NC(=O)C12C3C4C1C1C2C3C41C(N)=O (stereo not given) | > 100 µM (inactive) | > 100 µM (inactive) | > 100 µM (inactive) | > 100 µM (inactive) | > 100 µM (inactive) | > 100 µM (inactive) | > 100 µM (inactive) | > 100 µM (inactive) | > 100 µM (inactive) | > 100 µM (inactive) | > 100 µM (inactive) | > 100 µM (inactive) | > 100 µM (inactive) | > 100 µM (inactive) | > 100 µM (inactive) | > 100 µM (inactive) |  |  |  |  |
| CN(CCO)c1nc2c(c(=O)[nH]1)CNCC2 | > 100 µM (inactive) | > 100 µM (inactive) | > 100 µM (inactive) | > 100 µM (inactive) | > 100 µM (inactive) | > 100 µM (inactive) | > 100 µM (inactive) | > 100 µM (inactive) | > 100 µM (inactive) | > 100 µM (inactive) | > 100 µM (inactive) | > 100 µM (inactive) | 32.8 µM (inactive) | > 100 µM (inactive) | > 100 µM (inactive) | > 100 µM (inactive) |  |  |  |  |
| COC(=O)C1=C(O)CCCC(C2CCCCC(=O)C2C(=O)OC)=C1 (stereo not given) | 37.8 µM (inactive) | 33.5 µM (inactive) | 94.6 µM (inactive) | 31.3 µM (inactive) | 70.3 µM (inactive) | 13.9 µM (inactive) |  | > 100 µM (inactive) | > 100 µM (inactive) | 56.1 µM (inactive) | 62.4 µM (inactive) | 38.2 µM (inactive) | 28.7 µM (inactive) | 81.8 µM (inactive) | > 100 µM (inactive) | > 100 µM (inactive) |  | > 100 µM (inactive) | 22.6 µM (inactive) | 39.4 µM (inactive) |
| COC(=O)C(CC(=O)Nc1ccc(Cl)c(Cl)c1)C(=O)C(=O)Nc1ccc(Cl)c(Cl)c1 (stereo not given) | > 100 µM (inactive) | > 100 µM (inactive) | > 100 µM (inactive) | 94.6 µM (inactive) | > 100 µM (inactive) | > 100 µM (inactive) | > 100 µM (inactive) | > 100 µM (inactive) | > 100 µM (inactive) | > 100 µM (inactive) | > 100 µM (inactive) | > 100 µM (inactive) | > 100 µM (inactive) | > 100 µM (inactive) | > 100 µM (inactive) | > 100 µM (inactive) |  |  |  |  |
| COc1ccc2nc3c4c(nccc4c2c1)-c1ncccc1C3=O | 0.0246 µM (active) | 0.209 µM (active) | 0.0748 µM (active) | 0.847 µM (active) | 0.0887 µM (active) | 0.0261 µM (active) |  | 0.005 µM (active) | 0.439 µM (active) | 0.0652 µM (active) | 0.0282 µM (active) | 0.0508 µM (active) | 0.0787 µM (active) | 0.0121 µM (active) | 0.18 µM (active) | 0.135 µM (active) |  | 0.0427 µM (active) | 0.021 µM (active) | 0.703 µM (active) |
| Nc1ccc(C(=O)NN2C(=O)C(Cl)C2c2cccc(O)c2)cc1 (stereo not given) | 13.4 µM (inactive) | 15.8 µM (inactive) | 10.7 µM (inactive) | 11.3 µM (inactive) | 15.5 µM (inactive) | 14 µM (inactive) | 1.75 µM (inactive) | 15.8 µM (inactive) | 16.7 µM (inactive) | 14.7 µM (inactive) | 17.6 µM (inactive) | 17.8 µM (inactive) | 22.3 µM (inactive) | 19.2 µM (inactive) | 16.7 µM (inactive) | 19.7 µM (inactive) |  |  |  |  |
| C[N+](C)(C)CCOC(=O)/C=C/c1c[nH]cn1 |  | > 500 µM (inactive) | > 500 µM (inactive) | > 316 µM (inactive) | > 500 µM (inactive) | > 500 µM (inactive) | > 500 µM (inactive) | > 500 µM (inactive) | > 500 µM (inactive) | > 500 µM (inactive) | > 500 µM (inactive) | > 500 µM (inactive) | > 500 µM (inactive) | > 500 µM (inactive) |  | > 500 µM (inactive) |  |  | > 500 µM (inactive) |  |
| O[C@H]1[C@H]2[C@H](O)CCCN2C[C@H]1O [TRIDOLGOSIR] | > 100 µM (inactive) | > 100 µM (inactive) | > 100 µM (inactive) | > 100 µM (inactive) | > 100 µM (inactive) | > 100 µM (inactive) | > 100 µM (inactive) | > 100 µM (inactive) | > 100 µM (inactive) | > 100 µM (inactive) | > 100 µM (inactive) | > 100 µM (inactive) | > 100 µM (inactive) | > 100 µM (inactive) | > 100 µM (inactive) | > 100 µM (inactive) |  |  |  |  |
| COC(=O)C1=C(C(=O)OC)C23C=CC=CC24C(C(=O)OC)=C(C(=O)OC)C4C1C3 (stereo not given) | > 100 µM (inactive) | > 100 µM (inactive) | > 100 µM (inactive) | > 100 µM (inactive) | > 100 µM (inactive) | > 100 µM (inactive) | 32.7 µM (inactive) | > 100 µM (inactive) | > 100 µM (inactive) | 51.2 µM (inactive) | > 100 µM (inactive) | > 100 µM (inactive) | 0.743 µM (active) | > 100 µM (inactive) | > 100 µM (inactive) | > 100 µM (inactive) |  |  |  |  |
| COC(=O)C(=O)C(C(=O)C(=O)Nc1ccc(F)cc1)c1nc2ccc([N+](=O)[O-])cc2nc1O (stereo not given) | > 100 µM (inactive) | > 100 µM (inactive) | > 100 µM (inactive) |  | > 100 µM (inactive) | > 100 µM (inactive) | > 100 µM (inactive) | > 100 µM (inactive) | > 100 µM (inactive) | > 100 µM (inactive) | > 100 µM (inactive) | > 100 µM (inactive) | > 100 µM (inactive) | > 100 µM (inactive) | > 100 µM (inactive) | > 100 µM (inactive) |  |  |  |  |
| CCOC(=O)C(=Cc1cc(OC)ccc1OC)C(=O)OCC | 3.56 µM (inactive) | 20 µM (inactive) | 6.53 µM (inactive) | 5.89 µM (inactive) | 3.03 µM (inactive) | 30.2 µM (inactive) | 3.66 µM (inactive) | 10.7 µM (inactive) | 7.89 µM (inactive) | 3.44 µM (inactive) | 4.16 µM (inactive) | 5.27 µM (inactive) | 1.67 µM (inactive) | 3.52 µM (inactive) | > 10 µM (inactive) |  |  |  |  |  |
| Fc1ccc(C2SCc3nc4ccccc4n32)cc1F (stereo not given) | 55.3 µM (inactive) | 37.6 µM (inactive) | 27.6 µM (inactive) | 21.4 µM (inactive) | 21.1 µM (inactive) | 37.4 µM (inactive) | 18.3 µM (inactive) | 26.9 µM (inactive) | 18.2 µM (inactive) | 13.3 µM (inactive) | 16.8 µM (inactive) | 41.7 µM (inactive) | 20.1 µM (inactive) | 39.4 µM (inactive) | 26 µM (inactive) | 13.6 µM (inactive) |  |  |  |  |
| O=C(CSSCC(=O)OCCS(=O)(=O)Nc1ccc(Br)cc1)OCCS(=O)(=O)Nc1ccc(Br)cc1 | > 10 µM (inactive) | 7.8 µM (inactive) | 13.3 µM (inactive) | 3.11 µM (inactive) | 11.4 µM (inactive) | 14.5 µM (inactive) | 6.53 µM (inactive) | 13.1 µM (inactive) | 8.75 µM (inactive) | 10 µM (inactive) | 11.8 µM (inactive) | 18.7 µM (inactive) | 28.2 µM (inactive) | 8.45 µM (inactive) | 20.7 µM (inactive) | 28.6 µM (inactive) |  |  |  |  |
| Cc1cc2c(c(C(=O)O)c1C)-c1cccc(F)c1C2=O | > 100 µM (inactive) | > 100 µM (inactive) | > 100 µM (inactive) | > 100 µM (inactive) | > 100 µM (inactive) | > 100 µM (inactive) | > 100 µM (inactive) | > 100 µM (inactive) | > 100 µM (inactive) | > 100 µM (inactive) | > 100 µM (inactive) | > 100 µM (inactive) | > 100 µM (inactive) | > 100 µM (inactive) | > 100 µM (inactive) | 27 µM (inactive) |  |  |  |  |
